In article PMC9792776 (Frontiers in Pharmacology, 2022):

Tests used:
CYP2C9 = CYP2C9 (Homo sapiens, UniProt P11712); conditions: recombinant enzyme
CYP3A4 = CYP3A4 (Homo sapiens, UniProt P08684); assay: Intrinsic clearance in human recombinant CYP3A4
[1] = In vitro Caco-2 cell permeability; format: in vitro ADME; conditions: human
From the text: The first-order absorption model has different absorption rate constants (ka) and fraction available from dosage form (fa) to simulate absorption processes in fasting and fed states. […] Caco-2 (human colorectal adenocarcinoma) cells are used to model the intestinal epithelial barrier. The Simcyp (Version 19.0, Certara Inc., Sheffield, UK) minimal PBPK, which treats all organs other than the intestine and liver as a single compartment ([Rowland Yeo et al., 2010]), was selected, along with a single adjusting compartment (SAC) distribution model. The SAC is a nonphysiologic compartment that permits adjustment to the drug concentration profile in the systemic compartment ([Ke et al., 2016]).

CYP2C9, sequence (P11712 whole entry): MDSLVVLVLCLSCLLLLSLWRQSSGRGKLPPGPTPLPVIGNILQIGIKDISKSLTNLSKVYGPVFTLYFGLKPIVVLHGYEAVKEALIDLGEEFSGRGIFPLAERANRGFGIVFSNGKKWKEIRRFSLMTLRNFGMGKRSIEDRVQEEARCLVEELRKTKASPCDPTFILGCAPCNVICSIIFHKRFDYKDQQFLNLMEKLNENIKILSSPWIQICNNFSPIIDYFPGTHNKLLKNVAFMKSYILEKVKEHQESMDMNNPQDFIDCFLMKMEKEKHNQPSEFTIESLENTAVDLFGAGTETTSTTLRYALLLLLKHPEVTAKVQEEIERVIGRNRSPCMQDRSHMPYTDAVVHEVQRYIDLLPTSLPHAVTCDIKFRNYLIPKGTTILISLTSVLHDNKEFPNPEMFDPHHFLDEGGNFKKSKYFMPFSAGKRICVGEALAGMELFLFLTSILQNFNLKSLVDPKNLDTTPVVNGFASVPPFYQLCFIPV
CYP3A4, sequence (P08684 whole entry): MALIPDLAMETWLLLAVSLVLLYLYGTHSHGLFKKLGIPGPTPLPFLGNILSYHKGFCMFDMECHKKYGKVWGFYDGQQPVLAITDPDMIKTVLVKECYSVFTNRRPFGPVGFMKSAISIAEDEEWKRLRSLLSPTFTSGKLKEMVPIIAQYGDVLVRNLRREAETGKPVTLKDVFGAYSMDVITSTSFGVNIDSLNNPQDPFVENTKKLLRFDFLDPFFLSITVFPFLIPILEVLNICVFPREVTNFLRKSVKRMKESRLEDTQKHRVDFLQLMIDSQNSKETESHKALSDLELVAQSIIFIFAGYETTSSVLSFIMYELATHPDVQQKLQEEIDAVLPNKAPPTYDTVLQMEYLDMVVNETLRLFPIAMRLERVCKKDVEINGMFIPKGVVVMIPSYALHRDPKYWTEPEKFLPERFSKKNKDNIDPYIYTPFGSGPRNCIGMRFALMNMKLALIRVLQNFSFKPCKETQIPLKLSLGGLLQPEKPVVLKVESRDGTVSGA

Compound: O=C(O)Cc1ccccc1Nc1c(Cl)cccc1Cl [Diclofenac]
- CLint CYP2C9 (CYP2C9): 2.965 µL/min/pmol CYP

Compound: Cc1ncc2n1-c1ccc(Cl)cc1C(c1ccccc1F)=NC2 [Midazolam, reference compound]
- CLint CYP3A4 (CYP3A4): 3.083 µL/min/pmol CYP

Compound: CC(C)NCC(O)COc1cccc2ccccc12 (stereo not drawn) [Propranolol, propranolol, reference compound]
- Papp [1]: 56.8 nm/s
